ChEMBL document CHEMBL3856270, “Structure-activity relationship of cyclic pentapeptide malformins as fibrinolysis enhancers” (Bioorg Med Chem Lett, 2016)
pIC50: −log10 of the molar value. Activity calls are given as the source filed them. No cut-off for these calls is given here.

How the values were obtained:
[1] = Cytotoxicity against human U937 cells assessed as reduction in cell viability after 24 hrs by MTT assay; type: toxicity, cell-based, U-937; conditions: for IC50 at 24 h: human, U937 cells
U-937 [2] = test: Pro-fibrinolytic activity in human U937 cells supplemented with human platelet-poor plasma assessed as [125I]-fibrin degradation after 3 hrs by gamma counting method; type: functional, cell-based
U-937 [3] = test: Pro-fibrinolytic activity in human U937 cells supplemented with human platelet-poor plasma assessed as [125I]-fibrin degradation up to 5 uM after 3 hrs by gamma counting method; type: functional, cell-based
U-937 [4] = test: Pro-fibrinolytic activity in human U937 cells supplemented with human platelet-poor plasma assessed as [125I]-fibrin degradation at >20 uM after 3 hrs by gamma counting method; type: functional, cell-based

## CC[C@H](C)[C@@H]1NC(=O)[C@@H](CC(C)C)NC(=O)[C@H](C(C)C)NC(=O)[C@@H](CSC(c2ccccc2)(c2ccccc2)c2ccccc2)NC(=O)[C@@H](CSC(c2ccccc2)(c2ccccc2)c2ccccc2)NC1=O
[1]
  IC50 at 24 h: > 5000 nM

## CC[C@H](C)[C@@H]1NC(=O)[C@@H](CC(C)C)NC(=O)[C@H](C(C)C)NC(=O)[C@H]2CSSC[C@@H](NC1=O)C(=O)N2 (stereo in doubt; form 1) [listing 1 of 2 here]
U-937 [2]
  Activity: Dose-dependent effect

## CC[C@H](C)[C@@H]1NC(=O)[C@@H](CC(C)C)NC(=O)[C@H](C(C)C)NC(=O)[C@H]2CSSC[C@@H](NC1=O)C(=O)N2 (stereo in doubt; form 2) [listing 1 of 2 here]
U-937 [2]
  Activity: Dose-dependent effect

## CC(C)C[C@H]1NC(=O)[C@H](C(C)C)NC(=O)[C@H]2CSSC[C@@H](NC(=O)[C@H](CCCCNC(=O)OC(C)(C)C)NC1=O)C(=O)N2
[1]
  IC50 at 24 h: < 100 nM
U-937 [3]
  Activity: Active

## CC[C@H](C)[C@@H]1NC(=O)[C@@H](CC(C)C)NC(=O)[C@H](CCCCN)NC(=O)[C@H]2CSSC[C@@H](NC1=O)C(=O)N2
[1]
  IC50 at 24 h: > 5000 nM

## CC(C)C[C@H]1NC(=O)[C@H](C(C)C)NC(=O)[C@H]2CSSC[C@@H](NC(=O)[C@H](CCCCN)NC1=O)C(=O)N2
[1]
  IC50 at 24 h: > 5000 nM

## CC[C@H](C)[C@@H]1NC(=O)[C@@H](CCCCNC(=O)OC(C)(C)C)NC(=O)[C@H](C(C)C)NC(=O)[C@H]2CSSC[C@@H](NC1=O)C(=O)N2
[1]
  IC50 at 24 h: 200 nM
U-937 [3]
  Activity: Active

## CC[C@H](C)[C@@H]1NC(=O)[C@@H](CC(C)C)NC(=O)[C@H](C(C)C)NC(=O)[C@H]2CSSC[C@@H](NC1=O)C(=O)N2 (stereo in doubt; form 1) [listing 2 of 2 here]
[1]; u-937
  pIC50: 6.10

## CC[C@H](C)[C@@H]1NC(=O)[C@@H](C)NC(=O)[C@H](C(C)C)NC(=O)[C@H]2CSSC[C@@H](NC1=O)C(=O)N2
[1]
  IC50 at 24 h: 2200 nM
U-937 [3]
  Activity: Active

## CC[C@H](C)[C@H](N)C(=O)N[C@@H]1CSSC[C@H](C(=O)N[C@H](C(=O)N[C@H](CC(C)C)C(=O)O)C(C)C)NC1=O
[1]
  IC50 at 24 h: > 5000 nM

## CC[C@H](C)[C@@H]1NC(=O)[C@@H](CC(C)C)NC(=O)[C@H](C(C)C)NC(=O)[C@@H](CS)NC(=O)[C@@H](CS)NC1=O
U-937 [4]
  Activity: Active
[1]
  IC50 at 24 h: > 5000 nM

## CC[C@H](C)[C@@H]1NC(=O)[C@@H](CC(C)C)NC(=O)[C@H](C(C)C)NC(=O)[C@H]2CSSC[C@@H](NC1=O)C(=O)N2 (stereo in doubt; form 2) [listing 2 of 2 here]
[1]
  IC50 at 24 h: 760 nM

## CC[C@H](C)[C@@H]1NC(=O)[C@@H](CC(C)C)NC(=O)[C@H](CCCCNC(=O)OC(C)(C)C)NC(=O)[C@H]2CSSC[C@@H](NC1=O)C(=O)N2
[1]
  IC50 at 24 h: < 100 nM
U-937 [3]
  Activity: Active

## CC[C@H](C)[C@@H]1NC(=O)[C@@H](CCCCN)NC(=O)[C@H](C(C)C)NC(=O)[C@H]2CSSC[C@@H](NC1=O)C(=O)N2
[1]
  IC50 at 24 h: > 5000 nM

## CC[C@H](C)[C@@H]1NC(=O)[C@@H](CC(C)C)NC(=O)[C@H](C)NC(=O)[C@H]2CSSC[C@@H](NC1=O)C(=O)N2
[1]
  IC50 at 24 h: 1400 nM

## CC[C@H](C)[C@@H]1NC(=O)[C@@H](CC(C)C)NC(=O)[C@H](Cc2ccccc2)NC(=O)[C@H]2CSSC[C@@H](NC1=O)C(=O)N2
[1]
  IC50 at 24 h: < 100 nM
U-937 [3]
  Activity: Active

## CC(C)C[C@H]1NC(=O)[C@H](C(C)C)NC(=O)[C@H]2CSSC[C@@H](NC(=O)[C@H](Cc3ccccc3)NC1=O)C(=O)N2
[1]
  IC50 at 24 h: < 100 nM
U-937 [3]
  Activity: Active

## CC[C@H](C)[C@@H]1NC(=O)[C@@H](CC(C)C)NC(=O)[C@H](C(C)C)NC(=O)[C@@H](CSC)NC(=O)[C@@H](CSC)NC1=O
[1]
  IC50 at 24 h: > 5000 nM

## N[C@@H]1CSSC[C@H](C(=O)O)NC1=O
[1]
  IC50 at 24 h: > 5000 nM

## CC[C@H](C)[C@@H]1NC(=O)[C@@H](Cc2ccccc2)NC(=O)[C@H](C(C)C)NC(=O)[C@H]2CSSC[C@@H](NC1=O)C(=O)N2
[1]
  IC50 at 24 h: 1300 nM
U-937 [3]
  Activity: Active

## CC(C)C[C@H]1NC(=O)[C@H](C(C)C)NC(=O)[C@H]2CSSC[C@@H](NC(=O)[C@H](C)NC1=O)C(=O)N2
[1]
  IC50 at 24 h: 2800 nM
U-937 [3]
  Activity: Active
